Measured values reported in ChEMBL document CHEMBL2401728, “An unexpected Dimroth rearrangement leading to annelated thieno[3,2-d][1,2,3]triazolo[1,5-a]pyrimidines with potent antitumor activity” (Eur J Med Chem, 2013).

Key:
Format in all cases: functional
[1] = test system: SF-539; assay: Cytotoxicity against human SF539 cells assessed as cellular growth at 10 uM after 48 hrs by SRB assay relative to control
[2] = test system: COLO 205; assay: Cytotoxicity against human COLO205 cells assessed as cellular growth at 10 uM after 48 hrs by SRB assay relative to control
[3] = test system: OVCAR-8; assay: Cytotoxicity against human OVCAR8 cells assessed as cellular growth at 10 uM after 48 hrs by SRB assay relative to control
[4] = test system: BT-549; assay: Cytotoxicity against human BT549 cells assessed as cellular growth at 10 uM after 48 hrs by SRB assay relative to control
[5] = test system: MDA-MB-468; assay: Cytotoxicity against human MDA-MB-468 cells assessed as cellular growth at 10 uM after 48 hrs by SRB assay relative to control
[6] = test system: NCI-H460; assay: Cytotoxicity against human NCI-H460 cells assessed as cellular growth at 10 uM after 48 hrs by SRB assay relative to control
[7] = test system: OVCAR-8; assay: Cytotoxicity against human OVCAR8 cells after 48 hrs by SRB assay; conditions: OVCAR-8, 48 h
[8] = test system: A498; assay: Cytotoxicity against human A498 cells assessed as cellular growth at 100 uM after 48 hrs by SRB assay relative to control
[9] = test system: Malme-3M; assay: Cytotoxicity against human MALME-3M cells assessed as cellular growth at 100 uM after 48 hrs by SRB assay relative to control
[10] = test system: HCT-15; assay: Cytotoxicity against human HCT15 cells assessed as cellular growth at 0.1 uM after 48 hrs by SRB assay relative to control
[11] = test system: SR; assay: Cytotoxicity against human SR cells assessed as cellular growth at 0.01 uM after 48 hrs by SRB assay relative to control
[12] = test system: SK-MEL-5; assay: Cytotoxicity against human SK-MEL-5 cells after 48 hrs by SRB assay; conditions: SK-MEL-5, 48 h
[13] = test system: DU-145; assay: Cytotoxicity against human DU145 cells assessed as cellular growth at 0.01 uM after 48 hrs by SRB assay relative to control
[14] = test system: HOP-92; assay: Cytotoxicity against human HOP92 cells assessed as cellular growth at 0.01 uM after 48 hrs by SRB assay relative to control
[15] = test system: UO-31; assay: Cytotoxicity against human UO31 cells assessed as cellular growth at 0.1 uM after 48 hrs by SRB assay relative to control
[16] = test system: DU-145; assay: Cytotoxicity against human DU145 cells after 48 hrs by SRB assay; conditions: DU-145, 48 h
[17] = test system: 786-0; assay: Cytotoxicity against human 786-0 cells after 48 hrs by SRB assay; conditions: 786-0, 48 h
[18] = test system: UO-31; assay: Cytotoxicity against human UO31 cells assessed as cellular growth at 0.01 uM after 48 hrs by SRB assay relative to control
[19] = test system: Hs-578T; assay: Cytotoxicity against human Hs578T cells assessed as cellular growth at 100 uM after 48 hrs by SRB assay relative to control
[20] = test system: TK-10; assay: Cytotoxicity against human TK10 cells assessed as cellular growth at 0.1 uM after 48 hrs by SRB assay relative to control
[21] = test system: UACC-257; assay: Cytotoxicity against human UACC257 cells assessed as cellular growth at 100 uM after 48 hrs by SRB assay relative to control
[22] = test system: HCT-15; assay: Cytotoxicity against human HCT15 cells assessed as cellular growth at 100 uM after 48 hrs by SRB assay relative to control
[23] = test system: NCI-H23; assay: Cytotoxicity against human NCI-H23 cells assessed as cellular growth at 1 uM after 48 hrs by SRB assay relative to control
[24] = test system: NCI-H522; assay: Cytotoxicity against human NCI-H522 cells assessed as cellular growth at 0.01 uM after 48 hrs by SRB assay relative to control
[25] = test system: COLO 205; assay: Cytotoxicity against human COLO205 cells assessed as cellular growth at 1 uM after 48 hrs by SRB assay relative to control
[26] = test system: SF-539; assay: Cytotoxicity against human SF539 cells assessed as cellular growth at 0.01 uM after 48 hrs by SRB assay relative to control
[27] = Cytotoxicity against human EKVX cells after 48 hrs by SRB assay
[28] = test system: IGROV-1; assay: Cytotoxicity against human IGROV1 cells assessed as cellular growth at 0.01 uM after 48 hrs by SRB assay relative to control
[29] = test system: OVCAR-8; assay: Cytotoxicity against human OVCAR8 cells assessed as cellular growth at 0.01 uM after 48 hrs by SRB assay relative to control
[30] = test system: NCI-H522; assay: Cytotoxicity against human NCI-H522 cells after 48 hrs by SRB assay; conditions: NCI-H522, 48 h
[31] = test system: OVCAR-8; assay: Cytotoxicity against human OVCAR8 cells assessed as cellular growth at 1 uM after 48 hrs by SRB assay relative to control
[32] = test system: OVCAR-5; assay: Cytotoxicity against human OVCAR5 cells assessed as cellular growth at 0.01 uM after 48 hrs by SRB assay relative to control
[33] = test system: HL-60(TB); assay: Cytotoxicity against human HL-60(TB) cells assessed as cellular growth at 0.1 uM after 48 hrs by SRB assay relative to control
[34] = test system: OVCAR-3; assay: Cytotoxicity against human OVCAR3 cells assessed as cellular growth at 1 uM after 48 hrs by SRB assay relative to control
[35] = test system: ACHN; assay: Cytotoxicity against human ACHN cells after 48 hrs by SRB assay
[36] = test system: A549; assay: Cytotoxicity against human A549 cells after 48 hrs by SRB assay; conditions: A549, 48 h
[37] = read-out: LC50 (the source's name)
[38] = read-out: pLC50 (the source's name) (converted)

**Q.** Which Activity [1] does the source give for O=C(O)CCCn1c2c(sc3ccccc32)c(=O)n2nnc(-c3ccccc3)c12 here?
**A.** 91.17%

**Q.** And the Activity [2]?
**A.** 110.27%

**Q.** What about the Activity [3] of the same compound?
**A.** 77.77%

**Q.** What about the Activity [4] of the same compound?
**A.** 54.36%

**Q.** What about the Activity [5] of the same compound?
**A.** 85.92%

**Q.** What about the Activity [6] of the same compound?
**A.** 74.3%

**Q.** With O=C(CCCn1c2c(sc3ccccc32)c(=O)n2nnc(-c3ccccc3)c12)NCCc1c[nH]cn1 as the compound, how does the GI50 ([7]; read-out: GI50) read?
**A.** < 0.01 µM

**Q.** And the CC50 [7, 37]?
**A.** > 100 µM

**Q.** And the TGI ([7]; read-out: TGI)?
**A.** 2.99 µM

**Q.** What about the GI50 ([7]; read-out: pGI50 (converted)) of the same compound?
**A.** 0.01 µM

**Q.** What about the CC50 ([7]; read-out: pLC50 (converted)) of the same compound?
**A.** > 100 µM

**Q.** And the TGI ([7]; read-out: pTGI (converted))?
**A.** 3.02 µM

**Q.** What about the Activity [8] of the same compound?
**A.** -97%

**Q.** What about the Activity [1] of the same compound?
**A.** -97.26%

**Q.** And the Activity [9]?
**A.** -72%

**Q.** And the Activity [10]?
**A.** 78%

**Q.** What about the Activity [11] of the same compound?
**A.** 108%

**Q.** What about the GI50 ([12]; read-out: GI50) of the same compound?
**A.** 2.02 µM

**Q.** What about the CC50 [12, 37] of the same compound?
**A.** 33.2 µM

**Q.** And the TGI ([12]; read-out: TGI)?
**A.** 11 µM

**Q.** And the GI50 ([12]; read-out: pGI50 (converted))?
**A.** 2.04 µM

**Q.** And the CC50 [12, 38]?
**A.** 33.1 µM

**Q.** And the TGI ([12]; read-out: pTGI (converted))?
**A.** 11 µM

**Q.** And the Activity [13]?
**A.** 105%

**Q.** What about the Activity [14] of the same compound?
**A.** 99%

**Q.** And the Activity [15]?
**A.** 106%

**Q.** And the GI50 ([16]; read-out: GI50)?
**A.** 1.07 µM

**Q.** And the CC50 [16, 37]?
**A.** 4.75 µM

**Q.** What about the TGI ([16]; read-out: TGI) of the same compound?
**A.** 2.26 µM

**Q.** And the GI50 ([16]; read-out: pGI50 (converted))?
**A.** 1.07 µM

**Q.** And the CC50 [16, 38]?
**A.** 4.79 µM

**Q.** And the TGI ([16]; read-out: pTGI (converted))?
**A.** 2.24 µM

**Q.** And the GI50 ([17]; read-out: GI50)?
**A.** 1.05 µM

**Q.** And the CC50 [17, 37]?
**A.** 5.34 µM

**Q.** What about the TGI ([17]; read-out: TGI) of the same compound?
**A.** 2.37 µM

**Q.** And the GI50 ([17]; read-out: pGI50 (converted))?
**A.** 1.05 µM

**Q.** What about the CC50 [17, 38] of the same compound?
**A.** 5.37 µM

**Q.** What about the TGI ([17]; read-out: pTGI (converted)) of the same compound?
**A.** 2.34 µM

**Q.** And the Activity [18]?
**A.** 104%

**Q.** And the Activity [2]?
**A.** -77%

**Q.** What about the Activity [19] of the same compound?
**A.** -49%

**Q.** What about the Activity [20] of the same compound?
**A.** 93%

**Q.** And the Activity [21]?
**A.** -80%

**Q.** And the Activity [22]?
**A.** -100%

**Q.** And the Activity [23]?
**A.** 65%

**Q.** What about the Activity [24] of the same compound?
**A.** 65%

**Q.** And the Activity [25]?
**A.** 41%

**Q.** And the Activity [26]?
**A.** 73%

**Q.** What about the GI50 ([27]; read-out: GI50) of the same compound?
**A.** 2.5 µM

**Q.** And the CC50 [27, 37]?
**A.** > 100 µM

**Q.** And the TGI ([27]; read-out: TGI)?
**A.** 15.8 µM

**Q.** What about the GI50 ([27]; read-out: pGI50 (converted)) of the same compound?
**A.** 2.51 µM

**Q.** What about the CC50 [27, 38] of the same compound?
**A.** > 100 µM

**Q.** What about the TGI ([27]; read-out: pTGI (converted)) of the same compound?
**A.** 15.8 µM

**Q.** What about the Activity [28] of the same compound?
**A.** 101%

**Q.** What about the Activity [3] of the same compound?
**A.** -50.58%

**Q.** What about the Activity [29] of the same compound?
**A.** 42%

**Q.** What about the Activity [4] of the same compound?
**A.** 4%

**Q.** And the GI50 ([30]; read-out: GI50)?
**A.** 0.0435 µM

**Q.** What about the CC50 [30, 37] of the same compound?
**A.** > 100 µM

**Q.** And the TGI ([30]; read-out: TGI)?
**A.** 3.11 µM

**Q.** And the GI50 ([30]; read-out: pGI50 (converted))?
**A.** 0.0437 µM

**Q.** What about the TGI ([30]; read-out: pTGI (converted)) of the same compound?
**A.** 3.09 µM

**Q.** And the Activity [5]?
**A.** -93%

**Q.** And the Activity [31]?
**A.** 32%

**Q.** What about the Activity [6] of the same compound?
**A.** -93.2%

**Q.** What about the Activity [32] of the same compound?
**A.** 94%

**Q.** And the Activity [33]?
**A.** 43%

**Q.** And the Activity [34]?
**A.** 92%

**Q.** What about the GI50 ([35]; read-out: GI50) of the same compound?
**A.** 1.58 µM

**Q.** And the CC50 [35, 37]?
**A.** 6.26 µM

**Q.** And the TGI ([35]; read-out: TGI)?
**A.** 3.14 µM

**Q.** What about the GI50 ([35]; read-out: pGI50 (converted)) of the same compound?
**A.** 1.58 µM

**Q.** What about the CC50 [35, 38] of the same compound?
**A.** 6.31 µM

**Q.** And the TGI ([35]; read-out: pTGI (converted))?
**A.** 3.16 µM

**Q.** What about the GI50 ([36]; read-out: GI50) of the same compound?
**A.** 1.29 µM

**Q.** What about the TGI ([36]; read-out: TGI) of the same compound?
**A.** 3.21 µM

**Q.** And the GI50 ([36]; read-out: pGI50 (converted))?
**A.** 1.29 µM

**Q.** What about the TGI ([36]; read-out: pTGI (converted)) of the same compound?
**A.** 3.24 µM
